Here are results for two compounds from patent publication US6734177B2, “Certain salts of discodermolide acid, pharmaceutical compositions containing them and their use in treating tumors” (Novartis AG, priority 2001, dated 2004).

Read-outs that look alike come from different tables or passages of the source.

Data set [1] concerns HCT 116 colon carcinoma. Nature of the data set: Anchorage Dependent Growth Monolayer Assay (ADGMA), MTT, 3-day exposure. Format: cell-based. To be noted: Homo sapiens, read-out: IC50 (average±S.E.M.) HCT116. From the text: (§1) As indicated above, all of the compounds of formula I are anti-tumor agents and are, therefore, useful in inhibiting the growth of various lymphomas, sarcomas, carcinomas, myelomas, and leukemia cell lines. […] This assay was adapted from the 60 cell line assay used by the National Cancer Institute (NCI) with the following modifications:
(§2) 1) four cell lines representative for the important tumor types, viz., MIP 101 colon carcinoma, HCT 116 colon carcinoma, 1A9 ovarian carcinoma and 1A9PTX22 ovarian carcinoma were utilized; and
(§3) 2) a tetrazolium derivative, viz., MTT, was utilized to determine cell density.
(§4) The ADGMA compares the number of viable cells following a 3-day exposure to a test compound relative to a number of cells present at the time the test compound was added. […] The absorbence at 540 nm (A540) of the formazan derivative is proportional to the number of viable cells. The IC50 for a test compound is the concentration of compound required to reduce the final cell number to 50% of the final control cell number. If cell proliferation is inhibited, the assay further defines compounds as cytostatic (cell number after 3-day compound incubation>cell number at time of compound addition) or cytotoxic (cell number after 3-day compound incubation<cell number at time of compound addition).
(§5) The HCT 116 colon carcinoma cell line was obtained from the American Type Culture Collection (ATCC, Rockville, Md.). The MIP 101 colon carcinoma was obtained from Dr. Robert Kramer (Bristol Meyers Squibb) and was previously described (Niles R M, Wilhelm S A, Steele G D JR, Burke B, Christensen T, Dexter D, O'Brien M J, Thomas P, Zamcheck N. Isolation and characterization of an undifferentiated human colon carcinoma cell line (MIP-101). Cancer Invest. 1987;5(6):545-52.). The 1A9 and the 1A9PTX22 ovarian tumor cell lines were obtained from Dr. Tito Fojo, Medicine Branch, Division of Clinical Sciences, National Cancer Institute, National Institutes of Health, Bethesda, Md. 20892. The 1A9 is a clone of the ovarian carcinoma cell line, A2780 (Giannakakou P, Sackett, D L, Kang Y -K, Zhan Z, Buters J T M, Fojo T, Poruchynsky M S. Paclitaxel-resistant human ovarian cancer cells have mutant β-tubulins that impaired paclitaxel-driven polymerization. J. Biol. Chem. 1997, 272(4):17118-17125). The 1A9PTX22 subline was isolated as an individual clone from the 1A9 cell line in a single step selection by exposure to 5 ng/mL paclitaxel in the presence of 5 μg/mL of verapamil. All cell lines were used between passages 4-20 following thawing. MIP 101 colon carcinoma, HCT 116 colon carcinoma, 1A9 ovarian carcinoma and 1A9PTX22 ovarian carcinoma cell lines are maintained and plated in RPMI 1640 medium containing 10% fetal bovine serum.
(§6) Cells are trypsinized and counted using hemacytometer to determine cell concentrations. Cells were then plated in their respective maintenance media (200 μL/well) in 96-well plates at the following concentrations: MIP 101, 2000 cells/well, HCT 116, 2000 cells/well, 1A9, 10000 cells/well, and 1A9PTX22, 10000 cells/well. […] Initial cell densities, assayed one day after plating, are roughly 0.10-0.20 A540 absorbence units greater than the media blank. Ninety six well plates were seeded on day 0 and the test compounds are added on day 1. A “time 0” plate was created that received media only in row A and one cell line/row in rows B-E. The “time 0” plate was processed 24 hours after plating (at the time when drugs were added to experimental plates), as follows: To each well 5 microliters of the MTT stock solution (0.5 mg/ml in PBS) was added to each well and then incubated for three hours at 37 degrees C., 5% CO2, in a humidified environment. Media was then carefully and completely removed. Plates were allowed to dry in the dark. DMSO (dimethylsulfoxide) was added to each well (100 μl/well) and plates were placed on an orbital shaker for 2 hours. […]

In data set [2] the test system is MIP 101 colon carcinoma. Described as above. The format is cell-based. To be noted: Homo sapiens, 72 h, read-out: IC50 (average±S.E.M.) MIP101.
Text: as §1, §2, §3, §4, §5, §6

For data set [3], the system named is 1A9 ovarian carcinoma. The data set is described as above. Conditions: Homo sapiens, read-out: IC50 (average±S.E.M.) 1A9. The format is cell-based.
Text: as §1, §2, §3, §4, §5, §6

In data set [4] the test system is 1A9PTX22 ovarian carcinoma. Described as above. To be noted: Homo sapiens, 1A9/ptx-22, 72 h, read-out: IC50 (average±S.E.M.) 1A9PTX22. Format: cell-based.
Text: as §1, §2, §3, §4, §5, §6

Data set [5] can be described thus: Body weight change of athymic nude mice in the hollow fiber model. The format is in vivo. To be noted: Paclitaxel 15 mg/kg i.v. daily for 5 days, Ex. 1 45 mg/kg i.v. once; for Δ Mean % Body Weight, Exp. 1: Experiment 1; for Δ Mean % Body Weight, Exp. 2: Experiment 2. As for the experimental part:
Outbred athymic (nu/nu) female mice (“Chrls:Athymic Nude-nu”, Charles River Laboratories, Wilmington, Mass.) were anesthetized with ip injections of Ketamine/Xylazine (150 mg/kg, and 12 mg/kg body weight, respectively). For the subcutaneous implantation an 11-gauge trocar containing one or two hollow fibers was inserted through an incision made with scissors at the nape of the neck of an animal, and fibers were released by retracting the trocar while depressing the plunger. This procedure was repeated until all four hollow fibers were implanted. One wound clip was used to close the skin incision. After the surgery each animal received a single, subcutaneous injection of 0.4 mg/kg butorphenol to relieve any potential pain. Animals recovered from the anesthesia on a heating pad, before returning to their cages.
One day after the implantation (4 hollow fibers/animal, each hollow fiber containing one cell line: HCT 116, MIP 101, 1A9, and 1A9PTX22) animals were randomly sorted into five groups of six mice/group. The first group was sacrificed, hollow fibers were retrieved, and processed according to a published procedure, to determine the number of viable cells in each fiber (T0.)
The remaining groups were treated as follows:
Group 1: Example 1, 45 mg/kg, iv, once.
Group 2: Vehicle for Example 1 (16.7% Cremophor EL, 8.3% ethanol, 75% D5W), iv, once.
Group 3: Paclitaxel, 15 mg/kg, iv, daily for 5 days.
Group 4: Vehicle for paclitaxel (12.5% Cremophor EL, 12.5% ethanol, 75% D5W) iv, daily for 5 days.
On day 7 all animals were sacrificed, and hollow fibers were retrieved and processed according to a published procedure, to determine the number of viable cells in each fiber (T—for fibers from animals treated with experimental compounds, C—for fibers from animals treated with corresponding vehicles). Antitumor activity was expressed as % Mean ΔT/Mean ΔC [comparing cell growth for treatment group to vehicle control group, where % Mean ΔT/Mean ΔC=(Mean T−Mean T0/Mean C−Mean T0)×100%]. Regressions were calculated using the formula: (1−Mean T/Mean T0)×100%. Statistical significance of the results was uniformly evaluated using a two-tailed Student's t-test, as recommended by a statistician, following analysis of our representative experiments (Colin Goodal, statistical consultant to Novartis, personal communication).

The test system of data set [6] is 1A9PTX22 cell line. To be noted: 1A9PTX22 vs parental 1A9; cited from earlier work.

The term IC50 denotes the concentration that inhibits the measured activity by half. For `C=C/C=C\[C@H](C)[C@H](OC(N)=O)[C@@H](C)[C@@H](O)[C@@H](C)C/C(C)=C\[C@H](C)[C@@H](O)[C@@H](C)/C=C\[C@@H](O)C[C@H](O)[C@H](C)[C@H](O)[C@@H](C)C(=O)[O-].[Na+]` [Ex. 1, (2R,3S,4S,5S,7S,8Z,10S,11S,12S,13Z,16S,17S,18S,19S,20S,21Z)-19-[(aminocarbonyl)oxy]-3,5,7,11,17-pentahydroxy-2,4,10,12,14,16,18,20-octamethyl-8,13,21,23-tetracosatetraenoic acid, sodium salt], the IC50 in data set [1] (HCT-116, 72 h) worked out at 50 ± 20 nM; in data set [2], 300 ± 10 nM; in data set [3] (1A9, 72 h) it was 100 ± 40 nM; in data set [4] it was 200 ± 90 nM. The “Δ Mean % Body Weight, Exp. 1” value in data set [5] is recorded as “Exp. 1: None”. Also, the “Δ Mean % Body Weight, Exp. 2” value in data set [5] is on record as “Exp. 2: None”.
`CC(=O)O[C@H]1C(=O)[C@@]2(C)[C@H]([C@H](OC(=O)c3ccccc3)[C@]3(O)C[C@H](OC(=O)[C@H](O)[C@@H](NC(=O)c4ccccc4)c4ccccc4)C(C)=C1C3(C)C)[C@]1(OC(C)=O)CO[C@@H]1C[C@@H]2O` [paclitaxel]: the “Resistance to paclitaxel of 1A9PTX22 relative to parental 1A9” value in data set [6] is reported as 24 fold. In addition, the IC50 in data set [1] (72 h, HCT 116 cells, 3-day exposure, MTT) is 0.3 ± 0.2 nM; in data set [2] (MIP 101 cells, 3-day exposure, MTT), 200 ± 60 nM; in data set [3] (72 h, 1A9 cells, 3-day exposure, MTT), 47 ± 7 nM; in data set [4] (1A9PTX22 cells, 3-day exposure, MTT) it was 1 ± 1 nM. Also, the “Δ Mean % Body Weight, Exp. 1” value in data set [5] is “Exp. 1: None”. The “Δ Mean % Body Weight, Exp. 2” value in data set [5] was “Exp. 2: None”.
